Assay: In vitro permeation study in Franz cell
Assay type: in vitro ADME
Conditions: receiver pH 7.4
Text: These studies have been carried out using the most commonly used model in in vitro permeation studies. It is the Franz cell which is made up of two compartments separated by a membrane:
a donor compartment in which the composition to be studied is placed,
a membrane preimpregnated with a lipidic solution, made up of a mixture of phospholipids,
a receiver compartment containing an aqueous solution buffered at pH 7.4 under constant agitation, in which the active principle is recovered at regular intervals. Depending on the case, the composition of the medium can vary with the physico-chemical characteristics of the molecule.
These permeation studies were carried out by comparing each dispersed system comprising the lipoamino acid(s) with a simple solution of active principle.
The permeation expresses an active principle quantity which diffuses through a membrane per unit of surface and time (μg/cm^2/h).

| Structure (SMILES) | Permeation (time 0 hours, aciclovir, topical-route system of Example 6 vs simple solution of active principle) | Permeation (time 1 hour, aciclovir, topical-route system of Example 6 vs simple solution of active principle) | Permeation (time 2 hours, aciclovir, topical-route system of Example 6 vs simple solution of active principle) | Permeation (time 3 hours, aciclovir, topical-route system of Example 6 vs simple solution of active principle) | Permeation (time 0 hours, progesterone, oral-route system of Example 3 vs simple solution of active principle) | Permeation (time 0 hours, progesterone, transdermic-route system of Example 4 vs simple solution of active principle) | Permeation (time 1 hour, progesterone, oral-route system of Example 3 vs simple solution of active principle) | Permeation (time 1 hour, progesterone, transdermic-route system of Example 4 vs simple solution of active principle) | Permeation (time 2 hours, progesterone, oral-route system of Example 3 vs simple solution of active principle) | Permeation (time 2 hours, progesterone, transdermic-route system of Example 4 vs simple solution of active principle) | Permeation (time 3 hours, progesterone, oral-route system of Example 3 vs simple solution of active principle) | Permeation (time 3 hours, progesterone, transdermic-route system of Example 4 vs simple solution of active principle) |
| --- | --- | --- | --- | --- | --- | --- | --- | --- | --- | --- | --- | --- |
| Nc1nc2c(ncn2COCCO)c(=O)[nH]1 [Aciclovir] | 0 μg/cm^2/h | 2.35 μg/cm^2/h | 4.65 μg/cm^2/h | 5.80 μg/cm^2/h |  |  |  |  |  |  |  |  |
| CC(=O)[C@H]1CC[C@H]2[C@@H]3CCC4=CC(=O)CC[C@]4(C)[C@H]3CC[C@]12C [Progesterone] |  |  |  |  | 0 μg/cm^2/h | 0 μg/cm^2/h | 0.2 μg/cm^2/h | 0.25 μg/cm^2/h | 0.4 μg/cm^2/h | 0.43 μg/cm^2/h | 0.8 μg/cm^2/h | 0.85 μg/cm^2/h |

Source: US20040147578A1, “Use of lipoaminoacids as absorption promoters in a pharmaceutical composition” (priority 2001, published 2004)
